For one series, the system named is H2O2-damaged HepG2 cells. The experiment in a line: Cytoprotection on H2O2-damaged HepG2 cells (MTT). The format is cell-based, Human. Here is the method: […] Briefly, the HepG2 cells were incubated in a 96-well plate for 24 h. […] After removing peptides, H2O2 was added to the sample, GSH and model groups. After 24 h, the 96-wells were rinsed twice with PBS and used MTT method to determine the cell viability:Cell viability = (ODsample/ODcontrol) × 100%.

The subject of a further series is pepsin and trypsin. The experiment in a line: Stability in simulated gastrointestinal (GI) digestion, read out as O2−· scavenging activity. As to conditions: 2 h of pepsin digestion, peptide 5.0 mg/mL.
For series [1] the following is noted: cited from earlier work. The source says:
DPPH· is a very stable radical and is commonly used as a substrate to assess antioxidant activity. MSP7 and MSP8 have a strong hydrogen donating capacity and can reduce stable DPPH·.

For series [2] the following is noted: cited from earlier work. The source says:
HO· is a kind of strong free radical, which can not only cause lipid peroxidation in vivo but also attack polysaccharides, nucleic acids and other macromolecules, causing serious damage to cells.
The source holds these as a separate data set.

The conditions of series [3]: cited from earlier work. The source says: O2−· reacts with metal ions in the Fenton reaction to form HO· that triggers lipid peroxidation and causes oxidative damage to cells. MSP1, MSP2, MSP8, MSP10 and MSP13 have a strong ability to scavenge O2−· .
The source holds these as a separate data set.

The conditions of series [4]: cited from earlier work. An excerpt: ABTS^+· is a single oxygen ion radical with an absorption peak at 734 nm, which can be reduced by antioxidants leading to a decrease in absorbance.
The source holds these as a separate data set.

Setting [5] is: APs from seaweed (Eucheuma cottonii).
Setting [6] is: APs from tuna (Katsuwonus pelamis) cardiac arterial bulbs.
[7] abbreviates: APs from tuna cardiac arterial bulbs.
The mark [8] stands for this setting: APs from Spanish mackerel (Scomberomorous niphonius) skin.
Where [9] appears, read: APs from Antarctic krill (Euphausia superba).
Where [10] appears, read: APs from skin (printed after monkfish muscle).

We go through 22 molecules from article PMC10054418, “Eighteen Novel Bioactive Peptides from Monkfish (Lophius litulon) Swim Bladders: Production, Identification, Antioxidant Activity, and Stability” (Marine Drugs, 2023).

Where two headings read alike, the source gives them in different places. Where a SMILES comes first, the peptide text is derived from it.

Experimental for pepsin and trypsin: The reaction was initiated by adding 1 mL of phenazine methosulphate (PMS) solution (120 μM) to the reaction mixture. The absorbance was measured at 560 nm against the corresponding blank after incubation for 5 min at 25 °C. The scavenging capacity of the O2−· was calculated using the following equation: O2−·scavengingactivity(%)=[(Ac−As)/Ac]×100%, where Ac is the absorbance without the sample and As is the absorbance with the sample.

Regarding `N[C@@H](Cc1ccc(O)cc1)C(=O)N[C@@H](CC(=O)O)C(=O)N[C@@H](Cc1ccc(O)cc1)C(=O)N[C@@H](CC(=O)O)C(=O)O` [MSP1, Tyr-Asp-Tyr-Asp] (H-YDYD-OH), in the series on H2O2-damaged HepG2 cells (peptide at 200 μmol/L, 8 h pre-incubation, then H2O2 (300 µM) 24 h, MTT, mean ± SD of triplicate, model group 51.08 ± 1.97%), the “viability of H2O2-injured HepG2 cells” value stood at 82.14 ± 3.28%.
For the molecule `NC(=O)CC[C@H](N)C(=O)N[C@@H](CC(=O)O)C(=O)N[C@@H](Cc1ccc(O)cc1)C(=O)N[C@@H](CC(=O)O)C(=O)O` [MSP2, Gln-Asp-Tyr-Asp] (H-QDYD-OH), the “Declined percentage of O2−· scavenging activity, Treated with Pepsin” value (from here on “Declined percentage”) in the series with pepsin and trypsin is given as −15.13%.
On the same count and under the same terms, next, `N=C(N)NCCC[C@H](NC(=O)CN)C(=O)N[C@@H](Cc1c[nH]c2ccccc12)C(=O)O` [MSP7, Gly-Arg-Trp] (H-Gly-Arg-Trp-OH): −24.34%.
Turning to `C[C@H](N)C(=O)N[C@@H](CCCNC(=N)N)C(=O)N[C@@H](Cc1c[nH]c2ccccc12)C(=O)O` [MSP8, Ala-Arg-Trp] (H-Ala-Arg-Trp-OH), the “viability of H2O2-injured HepG2 cells” value with H2O2-damaged HepG2 cells (8 h, 200 μmol/L) worked out at 81.32 ± 2.45%. Further, in the series with pepsin and trypsin, the “Declined percentage” value is −24.93%.
Regarding `NCCCC[C@H](NC(=O)CNC(=O)CNC(=O)[C@H](CC(=O)O)NC(=O)[C@@H](N)CC(=O)O)C(=O)O` [MSP10, Asp-Asp-Gly-Gly-Lys] (H-DDGGK-OH), the “Declined percentage” value with pepsin and trypsin is reported as −21.98%.
For the molecule “EDIVCW [literature AP from monkfish muscle]”, in series [1] (APs from monkfish muscle), the “EC50 on DPPH·” value was 390 µg/mL. In addition, the “EC50 on HO·” value in series [2] (APs from monkfish muscle) was 610 µg/mL. For the same molecule, the “EC50 on O2−·” value in series [3] (APs from monkfish muscle) is 760 µg/mL.
Turning to “FYKA [literature AP from seaweed (Eucheuma cottonii)]”, in series [1] (setting [5]), the “EC50 on DPPH·” value was 2560 µg/mL. In series [3] (APs from seaweed), the “EC50 on O2−·” value is 1910 µg/mL.
As to “GEGQR [literature AP from tuna (Katsuwonus pelamis) cardiac arterial bulbs]”, in series [1] (setting [6]), the “EC50 on DPPH·” value is 2257 µg/mL. In series [3] (setting [7]), the “EC50 on O2−·” value is 2143 µg/mL. In addition, the “EC50 on ABTS^+·” value in series [4] (setting [7]) is 1218 µg/mL.
In the case of “GEQSN [literature AP from tuna (Katsuwonus pelamis) cardiac arterial bulbs]”, the “EC50 on DPPH·” value in series [1] (setting [6]) is 2054 µg/mL. Moreover, the “EC50 on O2−·” value in series [3] (setting [7]) was 1857 µg/mL.
For “GHHAAA [literature AP from tuna milt (also printed under tuna roes)]”, the “EC50 on ABTS^+·” value in series [4] (APs from tuna milt) was 1120 µg/mL.
Regarding “GPTGE [literature AP from Spanish mackerel (Scomberomorous niphonius) skin]”, in series [1] (setting [8]), the “EC50 on DPPH·” value was 1420 µg/mL.
In the case of “IDSQ [literature AP from Antarctic krill (Euphausia superba)]”, the “EC50 on HO·” value in series [2] (setting [9]) was 2570 µg/mL. Also, in series [3] (APs from Antarctic krill), the “EC50 on O2−·” value was 1450 µg/mL.
For the molecule “IEEEQ [literature AP from red stingray (Dasyatis akajei) cartilages]”, the “EC50 on ABTS^+·” value in series [4] (APs from red stingray (Dasyatis akajei) cartilages) was 180 µg/mL.
Regarding “PSYV [literature AP from loach (Misgurnus anguillicaudatus) meat]”, the “EC50 on HO·” value in series [2] (AP from loach (Misgurnus anguillicaudatus) meat) was 2640 µg/mL.
As to “PYFK [literature AP from scalloped hammerhead sharks (Sphyrna lewini) muscle]”, in series [1] (APs from scalloped hammerhead sharks (Sphyrna lewini) muscle), the “EC50 on DPPH·” value is 4110 µg/mL. In series [4] (APs from scalloped hammerhead sharks muscle), the “EC50 on ABTS^+·” value is 120 µg/mL.
For “PYGAKG [literature AP from Spanish mackerel (Scomberomorous niphonius) skin]”, the “EC50 on DPPH·” value in series [1] (setting [8]) was 3020 µg/mL.
Turning to “SMDV [literature AP from tuna milt (also printed under tuna roes)]”, in series [4] (APs from tuna milt), the “EC50 on ABTS^+·” value was 1160 µg/mL.
As for “VEKT [literature AP from Antarctic krill (Euphausia superba)]”, in series [2] (setting [9]), the “EC50 on HO·” value was 1530 µg/mL. The “EC50 on O2−·” value in series [3] (APs from Antarctic krill) was 860 µg/mL.
Turning to “VGGRP [literature AP from grass carp (Ctenopharyngodon idella) skin]”, in series [2] (AP from grass carp (Ctenopharyngodon idella) skin), the “EC50 on HO·” value was 2060 µg/mL.
On to “YGPM [literature AP from Spanish mackerel skin]”, for which the “EC50 on DPPH·” value in series [1] (setting [8]) is 720 µg/mL. Also, the “EC50 on HO·” value in series [2] (setting [10]) is 880 µg/mL. In addition, the “EC50 on O2−·” value in series [3] (setting [10]) was 730 µg/mL. Besides, the “EC50 on ABTS^+·” value in series [4] (APs from monkfish skin as printed) was 820 µg/mL.
Turning to “YSKT [literature AP from seaweed (Eucheuma cottonii)]”, the “EC50 on DPPH·” value in series [1] (setting [5]) was 1710 µg/mL.
In the case of “YWDAW [literature AP from monkfish muscle]”, in series [1] (APs from monkfish muscle), the “EC50 on DPPH·” value is 510 µg/mL. For the same molecule, in series [2] (APs from monkfish muscle), the “EC50 on HO·” value is 320 µg/mL. Moreover, the “EC50 on O2−·” value in series [3] (APs from monkfish muscle) is 480 µg/mL.
